This assay addresses T1, Full Length hPPARβ/δ (Homo sapiens, UniProt Q03181).
T1 construct: Full Length; expressed in transfected cells; host or cells: Cos cells
T1 sequence (Q03181 1-441): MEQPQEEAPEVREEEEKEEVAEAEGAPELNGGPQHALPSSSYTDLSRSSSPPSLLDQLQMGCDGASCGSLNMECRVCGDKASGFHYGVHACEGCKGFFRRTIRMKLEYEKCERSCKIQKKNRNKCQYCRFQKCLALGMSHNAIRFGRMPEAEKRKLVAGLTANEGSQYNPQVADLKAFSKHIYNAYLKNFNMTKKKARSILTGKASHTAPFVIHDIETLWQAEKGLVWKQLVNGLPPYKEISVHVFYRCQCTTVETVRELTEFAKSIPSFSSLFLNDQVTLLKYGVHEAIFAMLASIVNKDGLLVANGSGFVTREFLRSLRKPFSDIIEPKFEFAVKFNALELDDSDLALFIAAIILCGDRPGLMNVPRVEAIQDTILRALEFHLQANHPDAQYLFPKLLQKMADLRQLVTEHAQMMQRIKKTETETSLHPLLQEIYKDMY
In words: Full length hPPARβ/δ transfection assay. The assay is classed as cell-based. The settings on record: full length receptor; scale 1-5; read-out: Full Length hPPAR β/δ EC50 (scaled number). Here is the method:
Transient transfection assays. Cos cells were seeded in 60-mm dishes at a density of 5.5×10^5 cells/dish in Dulbecco's modified Eagle's medium (DMEM) supplemented with 10% fetal calf serum (FCS) and incubated at 37° C. for 24 hours before transfection. Cells were transfected in Opti-MEM (Gibco; Invitrogen, Carlsbad, Calif.) without FCS for 3 hours at 37° C., using polyethylenimine, with reporter and expression plasmids. The plasmid pBluescript (Stratagene, La Jolla, Calif.) was used as carrier DNA to set the final amount of DNA to 5.5 μg/dish. The pCMV-b-galactosidase expression plasmid was cotransfected as a control for transfection efficiency. Transfection was stopped by the addition of DMEM supplemented with 10% FCS, and cells were then incubated at 37° C. After 16 hours, cells were trypsinized and seeded in 96-well plates at the density of 2×10^4 cells/well and incubated for 6 hours in 10% FCS-containing DMEM. Cells were then incubated for 24 hours in DMEM containing 0.2% FCS and increasing concentrations of the compound tested or vehicle (DMSO). At the end of the experiment, cells were washed once with ice-cold PBS, lysed and the luciferase and b-galactosidase assays were performed in a luminometer and spectrophotomer. Transfection efficiencies were normalized with the b-galactosidase activity assay. Half-maximal effective concentration (EC50) was estimated using Prism software (GraphPad). All transfection experiments were performed at least three times.
In the following tables, proprietary compound EC50 values for hPPAR α, β, δ and γ are shown. The EC50 value is the concentration of a drug that induces a response halfway between the baseline and maximum, and is commonly used as a measure of drug potency. EC50 values are reported on a scale of 1 through 5, wherein the value scale is defined for each receptor as follows: […]
With `CCCCCCn1c(COC(=O)c2ccc(SC(C)(C)C(=O)O)cc2)nn(Cc2ccc(C)cc2)c1=O` [Compound 160, 2-(4-(((4-hexyl-1-(4-methylbenzyl)-5-oxo-4,5-dihydro-1H-1,2,4-triazol-3-yl)methoxy)carbonyl)phenylthio)-2-methylpropanoic acid], the EC50 is 201 to 999 nM. For `CCCCCCCCn1c(COC(=O)c2ccc(SC(C)(C)C(=O)O)cc2)nn(Cc2ccc(C)cc2)c1=O` [Compound 161, 2-methyl-2-(4-(((1-(4-methylbenzyl)-4-octyl-5-oxo-4,5-dihydro-1H-1,2,4-triazol-3-yl)methoxy)carbonyl)phenylthio)propanoic acid] the value was 201 to 999 nM.

In the case of `CCCCCCCn1c(COC(=O)c2ccc(SC(C)(C)C(=O)O)cc2)nn(Cc2ccc(C)cc2)c1=O` [Compound 191, 2-(4-(((4-heptyl-1-(4-methylbenzyl)-5-oxo-4,5-dihydro-1H-1,2,4-triazol-3-yl)methoxy)carbonyl)phenylthio)-2-methylpropanoic acid], the EC50 lay in the range of 51 to 200 nM.

The record behind these values is US20100184815A1 (priority 2008, published 2010).
